Consider 22 compounds from patent US20090203577A1 (EXELIXIS, INC., priority 2005, published 2009).

For this assay, the target named is T1, human farnesoid X receptor (Homo sapiens, UniProt Q96RI1).
T1 construct: CMX-farnesoid X receptor (full length human farnesoid X receptor); expressed in transfected cells; host or cells: CV-1 African Green Monkey Kidney cells
T1 sequence (Q96RI1 1-472 isoform Q96RI1-2): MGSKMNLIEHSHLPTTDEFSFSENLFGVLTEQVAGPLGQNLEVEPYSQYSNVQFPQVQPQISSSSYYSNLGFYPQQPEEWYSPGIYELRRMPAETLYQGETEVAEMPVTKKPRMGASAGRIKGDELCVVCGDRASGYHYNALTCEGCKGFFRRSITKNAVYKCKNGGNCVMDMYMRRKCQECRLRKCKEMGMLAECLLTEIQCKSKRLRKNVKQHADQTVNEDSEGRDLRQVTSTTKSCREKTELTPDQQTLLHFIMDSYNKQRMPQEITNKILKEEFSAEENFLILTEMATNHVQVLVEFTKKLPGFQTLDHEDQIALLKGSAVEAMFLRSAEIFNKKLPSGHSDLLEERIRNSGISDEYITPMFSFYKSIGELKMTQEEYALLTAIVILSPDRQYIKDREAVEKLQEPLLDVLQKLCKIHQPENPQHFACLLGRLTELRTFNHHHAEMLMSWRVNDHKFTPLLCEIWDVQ
T1 sequence (P19793 1-462 partner): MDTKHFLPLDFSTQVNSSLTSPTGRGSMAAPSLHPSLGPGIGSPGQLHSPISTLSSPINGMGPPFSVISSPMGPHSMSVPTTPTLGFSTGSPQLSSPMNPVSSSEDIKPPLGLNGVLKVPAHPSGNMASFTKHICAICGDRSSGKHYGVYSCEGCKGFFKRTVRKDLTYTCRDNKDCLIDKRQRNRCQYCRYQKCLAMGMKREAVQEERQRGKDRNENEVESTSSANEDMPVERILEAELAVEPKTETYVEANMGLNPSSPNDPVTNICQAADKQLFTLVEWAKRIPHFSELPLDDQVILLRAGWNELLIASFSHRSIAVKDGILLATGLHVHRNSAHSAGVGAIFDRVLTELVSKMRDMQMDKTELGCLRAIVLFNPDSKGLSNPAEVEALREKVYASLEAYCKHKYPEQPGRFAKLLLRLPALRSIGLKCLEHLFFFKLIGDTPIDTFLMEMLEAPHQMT
The experiment in a line: FXR in vitro assays (farnesoid X receptor/ECREx7 co-transfection assay, TR-FRET assay), Table I. The class given is cell-based. Conditions: for EC50: agonist activity, one or more of the in vitro assays, read-out: EC50; for Emax: read-out: % Efficacy. An outline of the steps: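 CV-1 monkey kidney cells transfected for an FXR/ECREx7 luciferase co-transfection reporter; luciferase read 18-20 h later in lysates. 8-point dose-response at ½-log spacing, 4 wells per point; EC50/IC50 from four-parameter Hill fit, averaged over at least 3 independent experiments.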

In the case of `CC(C)OC(=O)C1=CN(C(=O)c2cccc(CN3CCN(S(C)(=O)=O)CC3)c2)CC(C)(C)c2c1[nH]c1ccccc21` [Example 151, 1-methylethyl 1,1-dimethyl-3-[(3-{[4-(methylsulfonyl)piperazin-1-yl]methyl}phenyl)carbonyl]-1,2,3,6-tetrahydroazepino[4,5-b]indole-5-carboxylate], the EC50 was 100 to 1000 nM and the Emax was above 100%. In the same order, the values of `Cc1ccc(C(=O)N2C=C(C(=O)OC(C)C)c3[nH]c4ccccc4c3C(C)(C)C2)cc1` [Example 87, 1-methylethyl 1,1-dimethyl-3-[(4-methylphenyl)carbonyl]-1,2,3,6-tetrahydroazepino[4,5-b]indole-5-carboxylate] are 10 to 100 nM and above 100%. For `CC(C)OC(=O)C1=CN(C(=O)N2CCCCCC2)CC(C)(C)c2c1[nH]c1ccccc21` [Example 40, 1-methylethyl 3-(azepan-1-ylcarbonyl)-1,1-dimethyl-1,2,3,6-tetrahydroazepino [4,5-b]indole-5-carboxylate] the same measures were 1 to 10 nM and above 100%.

Consider `CC(C)OC(=O)C1=CN(C(=O)c2ccc(Cl)c(Cl)c2)CC(C)(C)c2c1[nH]c1ccccc21` [Example 148, 1-methylethyl 3-[(3,4-dichlorophenyl)carbonyl]-1,1-dimethyl-1,2,3,6-tetrahydroazepino[4,5-b]indole-5-carboxylate], for which the EC50 was 10 to 100 nM and the Emax was above 100%. As to `CC(C)OC(=O)C1=CN(C(=O)c2c(F)ccc(F)c2Cl)CC(C)(C)c2c1[nH]c1ccccc21` [Example 61, 1-methylethyl 3-[(2-chloro-3,6-difluorophenyl)carbonyl]-1,1-dimethyl-1,2,3,6-tetrahydroazepino[4,5-b]indole-5-carboxylate], the concentration giving a half-maximal response (EC50) was 10 to 100 nM and the Emax is above 100%. On to `CC(C)OC(=O)C1=CN(C(=O)c2cc(F)c(F)c(OCCN3CCOCC3)c2)CC(C)(C)c2c1[nH]c1ccccc21` [Example 179, 1-methylethyl 3-({3,4-difluoro-5-[(2-morpholin-4-ylethyl)oxy]phenyl}carbonyl)-1,1-dimethyl-1,2,3,6-tetrahydroazepino[4,5-b]indole-5-carboxylate], for which the EC50 was 10 to 100 nM and the Emax was above 100%. In the same order, the values of `CC1(C)CN(C(=O)c2ccc(F)c(F)c2)C=C(C(=O)CCl)c2[nH]c3ccccc3c21` [Example 121, 2-chloro-1-{3-[(3,4-difluorophenyl)carbonyl]-1,1-dimethyl-1,2,3,6-tetrahydroazepino[4,5-b]indol-5-yl}ethanone] are 100 to 1000 nM and below 40%.

In the case of `CC(C)OC(=O)C1=CN(C(=O)c2cccc(C#N)c2)CC(C)(C)c2c1[nH]c1ccccc21` [Example 142, 1-methylethyl 3-[(3-cyanophenyl)carbonyl]-1,1-dimethyl-1,2,3,6-tetrahydroazepino[4,5-b]indole-5-carboxylate], the 50% effective concentration (EC50) lay in the range of 10 to 100 nM and the Emax was above 100%. As to `CC(C)OC(=O)C1=CN(C(=O)c2cccc(OCCN3CCOCC3)c2)CC(C)(C)c2c1[nH]c1ccccc21` [Example 160, 1-methylethyl 1,1-dimethyl-3-({3-[(2-morpholin-4-ylethyl)oxy]phenyl}carbonyl)-1,2,3,6-tetrahydroazepino[4,5-b]indole-5-carboxylate], the Emax was above 100%. In the case of `CCN(CC)Cc1cccc(C(=O)N2C=C(C(=O)OC(C)C)c3[nH]c4ccccc4c3C(C)(C)C2)c1` [Example 114, 1-methylethyl 3-({3-[(diethylamino)methyl]phenyl}carbonyl)-1,1-dimethyl-1,2,3,6-tetrahydroazepino[4,5-b]indole-5-carboxylate], the EC50 lay within 100 to 1000 nM and the Emax is above 100%. In the same order, the values of `CC(C)OC(=O)C1=CN(C(=O)c2ccc3c(c2)nnn3C)CC(C)(C)c2c1[nH]c1ccccc21` [Example 157, 1-methylethyl 1,1-dimethyl-3-[(1-methyl-1H-1,2,3-benzotriazol-5-yl)carbonyl]-1,2,3,6-tetrahydroazepino[4,5-b]indole-5-carboxylate] are 10 to 100 nM and above 100%.

Consider `CCS(=O)(=O)N1CCN(Cc2cccc(C(=O)N3C=C(C(=O)OC(C)C)c4[nH]c5ccccc5c4C(C)(C)C3)c2)CC1` [Example 172, 1-methylethyl 3-[(3-{[4-(ethylsulfonyl)piperazin-1-yl]methyl}phenyl)carbonyl]-1,1-dimethyl-1,2,3,6-tetrahydroazepino[4,5-b]indole-5-carboxylate], for which the EC50 is 100 to 1000 nM and the Emax is above 100%. In the case of `CC1(C)CN(C(=O)c2ccc(F)c(F)c2)C=C(C(=O)NCCC(=O)O)c2[nH]c3ccccc3c21` [Example 101, N-({3-[(3,4-difluorophenyl)carbonyl]-1,1-dimethyl-1,2,3,6-tetrahydroazepino[4,5-b]indol-5-yl}carbonyl)-beta-alanine], the EC50 is above 10000 nM. Same read-out and setting: then `CC(C)OC(=O)C1=CN(C(=O)c2cccc(CN3CCNCC3)c2)CC(C)(C)c2c1[nH]c1ccccc21` [Example 178, 1-methylethyl 1,1-dimethyl-3-{[3-(piperazin-1-ylmethyl)phenyl]carbonyl}-1,2,3,6-tetrahydroazepino[4,5-b]indole-5-carboxylate], with above 10000 nM. On to `CC(C)OC(=O)C1=CN(C(=O)NC2CCCCCC2)CC(C)(C)c2c1[nH]c1ccccc21` [Example 46, 1-methylethyl 3-[(cycloheptylamino)carbonyl]-1,1-dimethyl-1,2,3,6-tetrahydroazepino[4,5-b]indole-5-carboxylate], for which the EC50 is 10 to 100 nM and the Emax is above 100%. For `CC1(C)CN(C(=O)c2ccc(F)c(F)c2)C=C(C(=O)NCC(O)CO)c2[nH]c3ccccc3c21` (stereo not shown) [Example 162, 3-[(3,4-difluorophenyl)carbonyl]-N-(2,3-dihydroxypropyl)-1,1-dimethyl-1,2,3,6-tetrahydroazepino[4,5-b]indole-5-carboxamide], the EC50 was above 10000 nM. On to `CC(C)OC(=O)C1=CN(C(=O)c2cccc(CN3CCN(C(=O)C(C)C)CC3)c2)CC(C)(C)c2c1[nH]c1ccccc21` [Example 174, 1-methylethyl 1,1-dimethyl-3-[(3-{[4-(2-methylpropanoyl)piperazin-1-yl]methyl}phenyl)carbonyl]-1,2,3,6-tetrahydroazepino[4,5-b]indole-5-carboxylate], for which the EC50 was 100 to 1000 nM and the Emax was above 100%. For `COc1ccccc1C(=O)N1C=C(C(=O)OC(C)C)c2[nH]c3ccccc3c2C(C)(C)C1` [Example 69, 1-methylethyl 1,1-dimethyl-3-{[2-(methyloxy)phenyl]carbonyl}-1,2,3,6-tetrahydroazepino[4,5-b]indole-5-carboxylate] the same measures were 10 to 100 nM and above 100%. In the same order, the values of `CC(C)OC(=O)C1=CN(C(=O)c2ccc(CN(C)C)cc2)CC(C)(C)c2c1[nH]c1ccccc21` [Example 107, 1-methylethyl 3-({4-[(dimethylamino)methyl]phenyl}carbonyl)-1,1-dimethyl-1,2,3,6-tetrahydroazepino[4,5-b]indole-5-carboxylate] are 1000 to 10000 nM and above 100%.

As to `CC(C)OC(=O)C1=CN(C(=O)c2cc(CN3CCOCC3)ccc2F)CC(C)(C)c2c1[nH]c1ccccc21` [Example 155, 1-methylethyl 3-{[2-fluoro-5-(morpholin-4-ylmethyl)phenyl]carbonyl}-1,1-dimethyl-1,2,3,6-tetrahydroazepino[4,5-b]indole-5-carboxylate], the EC50 was 100 to 1000 nM and the Emax was above 100%. Consider `CC(C)OC(=O)C1=CN(C(=O)c2ccccc2F)CC(C)(C)c2c1[nH]c1ccccc21` [Example 63, 1-methylethyl 3-[(2-fluorophenyl)carbonyl]-1,1-dimethyl-1,2,3,6-tetrahydroazepino[4,5-b]indole-5-carboxylate], for which the EC50 fell in the range of 10 to 100 nM and the Emax was above 100%. For `CC(C)OC(=O)C1=CN(C(=O)c2ccc(F)c(F)c2)CC(C)(C)c2c1[nH]c1cc(OCCN(C)C)ccc21` [Example 98, 1-methylethyl 3-[(3,4-difluorophenyl)carbonyl]-8-{[2-(dimethylamino)ethyl]oxy}-1,1-dimethyl-1,2,3,6-tetrahydroazepino[4,5-b]indole-5-carboxylate] the same measures were 100 to 1000 nM and below 40%.
